“And” between values parts separate entries of the source, which are not always exact repeats. Equal entries are not always repeated. The source made the active and inactive calls.
Legend:
[1] = Luminescence Cell-Based Dose Retest to Confirm Inhibitors of Cancer Stem Cells. [Related pubchem assays (depositor defined):AID2717, AID2721]; assay type: functional; settings: Homo sapiens
[2] = microbe, parasite or virus in culture; assay type: functional; settings: Mycobacterium tuberculosis
[3] = test system: Vero; experiment: cells; assay type: functional, cell-based; settings: Chlorocebus sabaeus
[4] = viability of uninfected HEp-2 cells – cell-based, HTS, cytotoxicity control for RSV inhibitor project, dose response (AID 2410); assay type: functional; settings: human respiratory syncytial virus
[5] = test system: Vero; experiment: cells; assay type: functional; settings: Chlorocebus sabaeus
[6] = target: T1, Polyadenylate-binding protein 1 (Homo sapiens, UniProt P11940); experiment: MLLE domain peptide-binding blockers, IC50 – biochemical, fluorescence polarization, FITC-PAM2 peptide, dose response (AID 602259); assay type: functional; settings: read-out: IC50_Mean
[7] = target: T1, Polyadenylate-binding protein 1; experiment: MLLE binding blockers, Cy5 peptide tracer – biochemical, fluorescence polarization, Cy5-PAM2 peptide, secondary, miRNA deadenylation inhibitor project, dose response (AID 602260); assay type: functional; settings: read-out: IC50_Mean
[8] = test system: Escherichia coli; experiment: microbe, parasite or virus in culture
[9] = target: T2, Microphthalmia-associated transcription factor (Homo sapiens, UniProt O75030); experiment: reducers of TRPM1 reporter luminescence, concentration series – cell-based, SK-MEL-5, cherry-picked, set 3, MITF inhibitor project, dose response (AID 493073); assay type: functional;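 further: SK-MEL-5 melanoma cells with luciferase driven by the MITF target TRPM1 promoter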
T2 sequence (O75030 whole entry): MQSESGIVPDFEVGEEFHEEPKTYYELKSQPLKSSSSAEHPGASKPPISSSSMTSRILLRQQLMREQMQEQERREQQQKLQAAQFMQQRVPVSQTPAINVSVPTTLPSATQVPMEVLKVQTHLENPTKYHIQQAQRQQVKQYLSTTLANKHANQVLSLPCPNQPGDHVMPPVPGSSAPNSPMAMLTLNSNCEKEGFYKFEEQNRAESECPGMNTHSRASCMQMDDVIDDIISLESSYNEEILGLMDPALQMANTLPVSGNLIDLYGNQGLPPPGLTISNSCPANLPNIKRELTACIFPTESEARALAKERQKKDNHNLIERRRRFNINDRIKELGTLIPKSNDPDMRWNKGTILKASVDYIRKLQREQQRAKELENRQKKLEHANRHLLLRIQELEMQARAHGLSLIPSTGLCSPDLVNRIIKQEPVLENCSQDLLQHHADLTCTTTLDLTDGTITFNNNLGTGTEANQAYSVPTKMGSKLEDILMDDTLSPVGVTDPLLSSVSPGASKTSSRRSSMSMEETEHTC

[10] = DRD fibroblast viability loss – cell-based, non-viral oncogenic, luminescence, dose response (AID 1934); assay type: functional; settings: Homo sapiens
[11] = test system: BJ; experiment: BJ-TERT fibroblast viability loss – cell-based, RAS-independent, luminescence, dose response (AID 1933); assay type: functional; settings: Homo sapiens
[12] = test system: BJ; experiment: cells; assay type: functional, cell-based; settings: Homo sapiens
[13] = test system: BJ; experiment: BJ-TERT-LT-ST fibroblast viability loss – cell-based, RAS-independent, luminescence, dose response (AID 1935); assay type: functional; settings: Homo sapiens;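 further: BJ fibroblasts immortalized with TERT plus LT and ST oncogenes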
[14] = target: T3, Sentrin-specific protease 6 (Homo sapiens, UniProt Q9GZR1); assay type: functional;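 further: Luminescence-based dose-response confirmatory assay of SENP6 inhibition, following up an ultra-high-throughput screen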
T3 sequence (Q9GZR1 whole entry): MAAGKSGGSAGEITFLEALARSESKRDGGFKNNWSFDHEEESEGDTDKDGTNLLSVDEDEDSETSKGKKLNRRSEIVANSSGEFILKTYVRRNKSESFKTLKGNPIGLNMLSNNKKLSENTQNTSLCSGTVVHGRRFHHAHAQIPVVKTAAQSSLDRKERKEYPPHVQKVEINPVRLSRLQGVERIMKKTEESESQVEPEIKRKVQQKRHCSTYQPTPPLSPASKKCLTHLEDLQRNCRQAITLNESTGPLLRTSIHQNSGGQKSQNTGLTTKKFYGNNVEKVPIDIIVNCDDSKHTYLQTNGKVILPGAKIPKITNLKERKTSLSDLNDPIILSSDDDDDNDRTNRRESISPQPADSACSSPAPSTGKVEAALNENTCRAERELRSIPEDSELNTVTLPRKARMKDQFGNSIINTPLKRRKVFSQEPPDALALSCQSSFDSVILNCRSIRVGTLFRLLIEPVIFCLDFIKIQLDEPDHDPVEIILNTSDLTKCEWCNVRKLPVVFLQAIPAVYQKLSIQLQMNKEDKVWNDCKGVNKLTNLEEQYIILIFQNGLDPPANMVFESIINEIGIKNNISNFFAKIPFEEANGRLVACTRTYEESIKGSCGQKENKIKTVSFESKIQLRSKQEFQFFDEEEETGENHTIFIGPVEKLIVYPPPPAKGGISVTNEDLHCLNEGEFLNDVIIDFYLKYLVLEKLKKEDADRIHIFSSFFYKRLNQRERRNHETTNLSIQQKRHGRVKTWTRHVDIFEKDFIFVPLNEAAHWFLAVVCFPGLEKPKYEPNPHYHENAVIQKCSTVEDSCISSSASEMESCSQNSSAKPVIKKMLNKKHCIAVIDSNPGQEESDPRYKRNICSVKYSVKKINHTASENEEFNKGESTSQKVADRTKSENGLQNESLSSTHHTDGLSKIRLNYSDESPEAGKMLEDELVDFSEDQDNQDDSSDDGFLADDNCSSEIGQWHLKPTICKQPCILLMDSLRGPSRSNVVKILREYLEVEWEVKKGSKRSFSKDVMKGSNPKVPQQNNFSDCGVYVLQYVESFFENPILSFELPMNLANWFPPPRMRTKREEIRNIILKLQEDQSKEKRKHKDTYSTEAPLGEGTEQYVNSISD

[15] = target: T4, Caspase-3 (Homo sapiens, UniProt P42574); assay type: functional;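 further: Dose-response selectivity test against caspase-3 for candidate inhibitors of sentrin-specific proteases (SENPs)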
T4 sequence (P42574 whole entry): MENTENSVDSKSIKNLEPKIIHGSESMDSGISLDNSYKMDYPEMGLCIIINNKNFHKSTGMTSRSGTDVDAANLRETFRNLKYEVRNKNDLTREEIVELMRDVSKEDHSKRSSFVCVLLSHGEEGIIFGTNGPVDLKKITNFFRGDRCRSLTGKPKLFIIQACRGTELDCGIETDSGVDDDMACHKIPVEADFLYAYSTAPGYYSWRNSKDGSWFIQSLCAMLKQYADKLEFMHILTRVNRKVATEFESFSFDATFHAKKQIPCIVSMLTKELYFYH

[16] = target: T5, Sentrin-specific protease 8 (Homo sapiens, UniProt Q96LD8); assay type: functional;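 further: luminescence read-out of SENP8 inhibition, dose-response confirmation following an ultra-high-throughput screen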
T5 sequence (Q96LD8 whole entry): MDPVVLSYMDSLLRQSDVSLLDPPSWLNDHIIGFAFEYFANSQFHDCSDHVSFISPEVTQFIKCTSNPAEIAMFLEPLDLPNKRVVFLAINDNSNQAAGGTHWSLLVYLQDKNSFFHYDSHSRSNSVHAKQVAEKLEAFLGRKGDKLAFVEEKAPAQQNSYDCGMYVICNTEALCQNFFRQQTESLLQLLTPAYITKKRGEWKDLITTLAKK

[17] = target: T6, Sentrin-specific protease 7 (Homo sapiens, UniProt Q9BQF6); assay type: functional;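 further: Luminescence-based dose-response confirmation of ultra-high-throughput screening hits, measuring inhibition of SENP7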
T6 sequence (Q9BQF6 whole entry): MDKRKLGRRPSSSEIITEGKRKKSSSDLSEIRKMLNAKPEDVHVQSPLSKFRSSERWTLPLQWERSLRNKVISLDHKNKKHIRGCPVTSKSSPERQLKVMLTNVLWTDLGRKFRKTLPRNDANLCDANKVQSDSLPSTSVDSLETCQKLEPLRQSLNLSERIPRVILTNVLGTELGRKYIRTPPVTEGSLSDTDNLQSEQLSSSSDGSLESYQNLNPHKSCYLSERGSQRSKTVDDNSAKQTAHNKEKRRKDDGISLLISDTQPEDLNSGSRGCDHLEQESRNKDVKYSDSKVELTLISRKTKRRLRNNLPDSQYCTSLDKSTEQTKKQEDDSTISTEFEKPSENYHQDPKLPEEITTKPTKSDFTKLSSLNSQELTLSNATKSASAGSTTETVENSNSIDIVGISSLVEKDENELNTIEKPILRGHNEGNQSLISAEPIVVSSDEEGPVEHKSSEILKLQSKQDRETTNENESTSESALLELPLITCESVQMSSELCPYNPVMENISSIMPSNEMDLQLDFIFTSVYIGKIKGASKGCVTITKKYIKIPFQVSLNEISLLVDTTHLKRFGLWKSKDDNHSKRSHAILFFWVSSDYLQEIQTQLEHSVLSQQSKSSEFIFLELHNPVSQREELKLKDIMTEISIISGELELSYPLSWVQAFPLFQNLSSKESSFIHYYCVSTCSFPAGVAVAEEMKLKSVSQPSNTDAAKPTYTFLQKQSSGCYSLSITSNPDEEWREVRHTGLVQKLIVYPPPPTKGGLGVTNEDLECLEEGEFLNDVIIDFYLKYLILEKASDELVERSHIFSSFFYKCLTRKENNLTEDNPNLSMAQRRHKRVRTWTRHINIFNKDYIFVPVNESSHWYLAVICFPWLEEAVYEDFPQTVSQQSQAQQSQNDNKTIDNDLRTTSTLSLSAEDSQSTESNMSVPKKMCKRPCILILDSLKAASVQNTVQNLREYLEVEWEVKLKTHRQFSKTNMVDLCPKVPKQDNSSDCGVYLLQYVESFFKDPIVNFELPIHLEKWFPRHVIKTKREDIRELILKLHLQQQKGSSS

[18] = THP-1 cell cytotoxicity, dose response, cytotoxicity control for non-replicating M. tuberculosis project (AID 489025); assay type: functional
[19] = target: Glucose-6-phosphate 1-dehydrogenase (Homo sapiens, UniProt P11413); experiment: inhibition of Homo sapiens G6PD, dose series – biochemical, fluorescence, selectivity assay for P. falciparum G6PD inhibitor project, dose response (AID 504792); assay type: functional
[20] = target: T7, Hexokinase (Trypanosoma brucei, UniProt Q38C41); experiment: Confirmation assay for inhibitors of Trypanosoma brucei hexokinase 1-Analogue-first series. [Related pubchem assays (depositor defined):AID1430, AID1632, AID2516, AID2560, AID2579, AID2600, AID449725, AID492951]; assay type: functional
T7 sequence (Q38C41 whole entry): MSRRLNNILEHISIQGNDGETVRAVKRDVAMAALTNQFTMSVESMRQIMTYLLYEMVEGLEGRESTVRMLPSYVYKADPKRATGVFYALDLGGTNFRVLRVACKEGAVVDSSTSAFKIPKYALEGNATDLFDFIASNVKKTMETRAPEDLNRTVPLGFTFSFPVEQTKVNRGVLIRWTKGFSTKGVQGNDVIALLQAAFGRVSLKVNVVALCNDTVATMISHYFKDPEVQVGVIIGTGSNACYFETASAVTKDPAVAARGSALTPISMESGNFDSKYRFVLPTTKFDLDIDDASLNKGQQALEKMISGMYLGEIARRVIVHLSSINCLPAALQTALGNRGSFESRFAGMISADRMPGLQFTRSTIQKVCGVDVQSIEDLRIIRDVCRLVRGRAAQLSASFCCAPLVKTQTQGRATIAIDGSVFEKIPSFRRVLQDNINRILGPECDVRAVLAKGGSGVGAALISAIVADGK

[21] = target: Eukaryotic translation initiation factor 4E (Mus musculus, UniProt P63073); experiment: blockers of eIF4G binding by eIF4E – biochemical, TR-FRET, dose response (AID 855); assay type: functional;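 further: potency for disrupting eIF4E binding to eIF4GI seen as loss of FRET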
[22] = A Cell Based Secondary Assay To Explore Cytotoxicity of Compounds that Sensitize Mycobacterium Tuberculosis to Beta-Lactam Antibiotics.; assay type: functional

T1 sequence (P11940 whole entry, the tested form may be a part): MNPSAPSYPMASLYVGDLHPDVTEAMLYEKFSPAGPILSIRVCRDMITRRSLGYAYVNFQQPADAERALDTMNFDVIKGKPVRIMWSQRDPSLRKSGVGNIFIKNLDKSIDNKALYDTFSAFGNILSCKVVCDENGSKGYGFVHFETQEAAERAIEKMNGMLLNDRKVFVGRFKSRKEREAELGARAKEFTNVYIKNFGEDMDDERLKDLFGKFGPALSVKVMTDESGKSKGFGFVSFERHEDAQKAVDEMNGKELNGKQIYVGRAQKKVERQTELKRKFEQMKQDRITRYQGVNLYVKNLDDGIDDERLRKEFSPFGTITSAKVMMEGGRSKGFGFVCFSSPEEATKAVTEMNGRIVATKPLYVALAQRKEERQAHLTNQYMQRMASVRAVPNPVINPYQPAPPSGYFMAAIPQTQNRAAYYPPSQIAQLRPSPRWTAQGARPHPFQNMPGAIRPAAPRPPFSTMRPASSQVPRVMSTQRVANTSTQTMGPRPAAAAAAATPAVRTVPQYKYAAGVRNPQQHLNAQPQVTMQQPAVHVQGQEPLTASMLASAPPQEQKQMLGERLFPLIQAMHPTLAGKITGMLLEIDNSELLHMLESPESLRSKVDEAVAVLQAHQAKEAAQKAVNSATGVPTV
Glucose-6-phosphate 1-dehydrogenase, sequence (P11413 whole entry): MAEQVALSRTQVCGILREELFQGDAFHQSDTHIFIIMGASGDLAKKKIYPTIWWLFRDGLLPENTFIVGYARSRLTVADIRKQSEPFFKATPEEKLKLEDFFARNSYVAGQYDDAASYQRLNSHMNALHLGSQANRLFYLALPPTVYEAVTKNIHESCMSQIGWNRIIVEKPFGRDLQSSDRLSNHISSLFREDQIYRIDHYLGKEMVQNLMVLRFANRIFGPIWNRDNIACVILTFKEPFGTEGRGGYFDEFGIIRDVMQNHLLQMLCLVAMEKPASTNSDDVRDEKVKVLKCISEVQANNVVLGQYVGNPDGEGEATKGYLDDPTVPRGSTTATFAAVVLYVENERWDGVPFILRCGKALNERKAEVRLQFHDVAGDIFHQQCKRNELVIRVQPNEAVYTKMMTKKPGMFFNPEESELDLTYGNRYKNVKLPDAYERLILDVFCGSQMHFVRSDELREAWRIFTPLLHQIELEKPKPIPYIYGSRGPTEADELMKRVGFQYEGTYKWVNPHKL
Eukaryotic translation initiation factor 4E, sequence (P63073 whole entry): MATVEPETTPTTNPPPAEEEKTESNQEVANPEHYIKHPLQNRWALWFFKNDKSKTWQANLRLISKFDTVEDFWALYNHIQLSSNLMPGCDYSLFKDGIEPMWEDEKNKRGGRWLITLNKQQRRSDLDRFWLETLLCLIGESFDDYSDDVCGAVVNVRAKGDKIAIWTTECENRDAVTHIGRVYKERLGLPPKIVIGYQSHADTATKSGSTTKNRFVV

COc1ccc(C(=O)/C=C/c2cc(OC)c(O)c(OC)c2)c(F)c1
AC50 [1]: 7.21 µM (active) | CC50 [2]: 25.7 µM (active) | IC50 [3]: > 25 µM (active) | CC50 [4]: 14.3 µM (active) | CC50 [5]: 18.7 µM (active)

CCCCc1c(O)nc(SCC(=O)c2ccccc2)nc1O
IC50 [6]: > 66 µM (inactive) | IC50 [7]: > 66 µM (inactive) | AC50 [8]: 30.3 µM (active)

CCCN(CC(=O)Nc1ccccc1C)C(=O)CCl
AC50 [9]: 4.04 µM (active) | EC50 [10]: 8.23 µM (active) | EC50 [11]: 4 µM (active) | CC50 [5]: 9.42 µM (active) | EC50 [12]: 14.9 µM (inconclusive) | EC50 [13]: > 150 µM (inconclusive)

Cc1cccc(NC(=O)[C@H](Cc2c[nH]c3ccccc23)NC(=O)[C@@H]2Cc3ccccc3CN2)c1
EC50 [10]: 71.3 µM (active) | EC50 [11]: 28.3 µM (active) | IC50 [3]: 4.39 µM (active) | CC50 [5]: 19.4 µM (active) | EC50 [12]: 26.9 µM (active) | EC50 [13]: > 150 µM (not active)

O=C(NNC(=S)NC(=O)c1sc2ccccc2c1Cl)c1ccc(Cl)cc1
IC50 [3]: 10 µM (active) | CC50 [5]: > 25 µM (active)

COCc1cc(C)n(CC(=O)NC(C)c2ccccc2)c(=O)c1C#N (stereo not drawn)
AC50 [8]: 27.1 µM (active)

Cc1nc(Nc2ccc(C(=O)O)cc2)sc1-c1ccccc1
IC50 [14]: 0.787 µM (active) | IC50 [15]: 10.9 µM (active) | IC50 [16]: 1.88 µM (active) | IC50 [17]: 0.797 µM (active)

O=C(NCc1cccc(Cl)c1)c1cnn2c1NC(c1ccco1)CC2C(F)(F)F (stereo not drawn)
AC50 [8]: 24.2 µM (active)

Cc1cccc(NCc2ccc([N+](=O)[O-])s2)c1
CC50 [18]: > 40 µM (active)

CCC1Oc2nc(SC)nnc2-c2ccccc2N1C(=O)c1ccccc1 (stereo not drawn)
AC50 [8]: 24.1 µM (active)

N#CC(C#N)=C1C=CC=CN1/C(=C\c1ccccc1Cl)C(=O)c1ccccc1
IC50 [3]: > 25 µM (active) | CC50 [5]: 24.5 µM (active) | IC50 [19]: > 80 µM (inactive)

CC1(c2ccc(C(=O)Nc3cc(Cl)ccc3C(=O)O)cc2)CC1
IC50 [20]: 8 µM (active) and 4.24 µM (active)

CN(C)c1cccc(NC(=O)Cn2sc3ccccc3c2=O)c1
IC50 [20]: 8.21 µM (active)

O=c1c2ccccc2[s+]([O-])n1-c1ccc(Cl)cc1 (stereo not drawn)
IC50 [20]: > 25 µM (inactive)

COc1ccccc1NC(=O)Cn1sc2ccccc2c1=O
IC50 [20]: 6.28 µM (active)

COC(CN(C)C(=O)C1CCCN(S(=O)(=O)c2ccc3c(c2)oc(=O)n3C)C1)OC (stereo not drawn)
AC50 [8]: 27.3 µM (active)

O=C(N/N=C/c1ccc2c(c1)OCO2)c1sc2cc(Cl)ccc2c1Cl
IC50 [21]: > 64 µM (inactive) | CC50 [22]: > 40 µM (active)

COc1cc(/C=N/NC(=O)c2cc(-c3cccc(OC(C)C)c3)nc3ccccc23)ccc1O
IC50 [3]: > 25 µM (active) | CC50 [4]: 15.5 µM (active) | CC50 [5]: > 25 µM (active)
